Data set [1] concerns SARS-CoV-2. Kind of data set: microbe, parasite or virus in culture. The data set is classed as cell-based.
For data set [2], the system named is SARS-CoV-2. Nature of the data set: microbe, parasite or virus in culture. It is filed as cell-based. The settings on record: Severe acute respiratory syndrome coronavirus 2, Vero C1008, 96 h.
A further data set is described as follows: in vitro. The settings on record: African green monkey.
The mark [3] stands for this setting: CPE assay, percent cell protection, moi 0.05, 4 days, read-out: EC50.
Where [4] appears, read: Severe acute respiratory syndrome coronavirus 2, Vero C1008, Table 2, naproxen/ketotifen experiment.
Setting [5] is: Table 2, column 50 μM (head: Concentration Naproxen).

The values that follow come from patent publication US20240033259A1, “COMPOSITIONS AND METHODS FOR TREATING OR PREVENTING DISEASE ASSOCIATED WITH BETA CORONAVIRUS INFECTION” (priority 2020, published 2024).

pEC50: −log10 of the molar value. Read-outs that look alike come from different tables or passages of the source.

As usually defined, the pEC50 is −log10 of the EC50, conventionally taken in molar units. By inhibition is commonly meant the share of the control response that was lost under treatment. `COc1ccc2c(c1)c(CC(=O)O)c(C)n2C(=O)c1ccc(Cl)cc1` [Indomethacin, 2-{1-[(4-Chlorophenyl)-carbonyl]-5-methoxy-2-methyl-1H-indol-3-yl}acetic acid]: in the data set with SARS-CoV-2 [1], the “inhibition of SARS-CoV-2 / viral yield (in words)” value is given as “inhibited SARS-CoV-2”. The pEC50 in the data set with SARS-CoV-2 [1] (Severe acute respiratory syndrome coronavirus 2, Vero C1008, Table 4, indomethacin titrated, alone or with fixed ketotifen) was 4.00; in the data set on SARS-CoV-2 [2] (setting [3]) it was less than 3.40. Moreover, the inhibition at 25 µM with SARS-CoV-2 [1] (Severe acute respiratory syndrome coronavirus 2, Vero C1008, Table 4, Concentration Indomethacin 25 μM, read-out: percentage inhibition of SARS-CoV-2) is 0%. Also, the inhibition at 50 µM in the data set with SARS-CoV-2 [1] (Severe acute respiratory syndrome coronavirus 2, Vero C1008, Table 4, Concentration Indomethacin 50 μM, read-out: percentage inhibition of SARS-CoV-2) is 0%. Besides, in the data set with SARS-CoV-2 [1] (Severe acute respiratory syndrome coronavirus 2, Vero C1008, Table 4, Concentration Indomethacin 100 μM, read-out: percentage inhibition of SARS-CoV-2), the inhibition at 100 µM is 50%. The Percentage viability is on record as 98% in the data set with Vero E6 cells (concentration 0.39 μM); 106% in the data set on Vero E6 cells (concentration 0.78 μM); 111% in the data set with Vero E6 cells (concentration 1.56 μM); 117% in the data set with Vero E6 cells (concentration 3.13 μM); 124% in the data set with Vero E6 cells (concentration 6.25 μM); 124% with Vero E6 cells (concentration 12.5 μM). Moreover, the Percentage viability in the data set on Vero E6 cells (concentration 25 μM) is 125%; in the data set on Vero E6 cells (concentration 50 μM), 143%; in the data set on Vero E6 cells (concentration 100 μM), 143%. Also, the CC50 in “in vitro” was greater than 400 µM.

Regarding `CN1CCC(=C2c3ccccc3CC(=O)c3sccc32)CC1` [Ketotifen], the “inhibition of SARS-CoV-2 / viral yield (in words)” value in the data set on SARS-CoV-2 [1] is reported as “inhibited SARS-CoV-2”. Further, the pEC50 with SARS-CoV-2 [1] (setting [4]) was 4.31; with SARS-CoV-2 [1] (Severe acute respiratory syndrome coronavirus 2, Vero C1008, Table 3, ketotifen titrated, alone or with fixed indomethacin), 4.33; with SARS-CoV-2 [2] it was less than 3.86. The inhibition at 6.25 µM with SARS-CoV-2 [1] (Severe acute respiratory syndrome coronavirus 2, Vero C1008, Table 3, Concentration Ketotifen 6.25 μM, read-out: percentage inhibition of SARS-CoV-2) came to 0%. Further, the inhibition at 12.5 µM with SARS-CoV-2 [1] (Severe acute respiratory syndrome coronavirus 2, Vero C1008, Table 3, Concentration Ketotifen 12.5 μM, read-out: percentage inhibition of SARS-CoV-2) is 0%. In addition, the inhibition at 25 µM in the data set with SARS-CoV-2 [1] (Severe acute respiratory syndrome coronavirus 2, Vero C1008, Table 3, Concentration Ketotifen 25 μM, read-out: percentage inhibition of SARS-CoV-2) was determined as 0%. Moreover, the inhibition at 50 µM with SARS-CoV-2 [1] (Severe acute respiratory syndrome coronavirus 2, Vero C1008, Table 3, Concentration Ketotifen 50 μM, read-out: percentage inhibition of SARS-CoV-2) was 60%. The “percentage inhibition of SARS-CoV-2” value in the data set on SARS-CoV-2 [1] (setting [5]) is recorded as 68%. In addition, the Percentage viability in the data set on Vero E6 cells (concentration 0.20 μM) is recorded as 110%; with Vero E6 cells (concentration 0.39 μM) it was 103%; with Vero E6 cells (concentration 0.78 μM) it was 101%; in the data set with Vero E6 cells (concentration 1.56 μM), 109%; with Vero E6 cells (concentration 3.13 μM), 121%; in the data set with Vero E6 cells (concentration 6.25 μM), 125%. Also, the values for the Percentage viability with Vero E6 cells (concentration 12.5 μM), in the data set with Vero E6 cells (concentration 25 μM) and with Vero E6 cells (concentration 50 μM) were 122%, 104% and 86%, respectively. Further, in “in vitro”, the CC50 was 139 µM.

For the compound `COc1ccc2cc(C(C)C(=O)O)ccc2c1` (stereo not drawn) [Naproxen, 6-methoxy-α-methyl-2-naphthaleneacetic acid], the results for the pEC50 in the data set on SARS-CoV-2 [1] (setting [4]) and in the data set with SARS-CoV-2 [2] (setting [3]) were less than 4.00 and less than 3.40, respectively. Further, the “percentage inhibition of SARS-CoV-2” value in the data set on SARS-CoV-2 [1] (Table 2, column 6.25 μM (head: Concentration Naproxen)) was determined as 0%; in the data set on SARS-CoV-2 [1] (Table 2, column 12.5 μM (head: Concentration Naproxen)), 21%; with SARS-CoV-2 [1] (Table 2, column 25 μM (head: Concentration Naproxen)), 0%; with SARS-CoV-2 [1] (setting [5]), 0%; in the data set with SARS-CoV-2 [1] (Table 2, column 100 μM (head: Concentration Naproxen)), 0%.

Compound `CCC(CC)COC(=O)[C@H](C)N[P@](=O)(OC[C@H]1O[C@@](C#N)(c2ccc3c(N)ncnn23)[C@H](O)[C@@H]1O)Oc1ccccc1` [Remdesivir] gave a pEC50 in the data set on SARS-CoV-2 [2] of 5.54.
